From ChEMBL document CHEMBL1201862, “PubChem BioAssay data set” (2004)
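How tested: cells in 96-well plates exposed to compound for 48 hours at five concentrations. GI50: concentration for 50% inhibition of growth.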 Calls of active or inactive are those of the source. No stated cut-off is given here; in the data, active = GI50 up to about 1.1 µM and inactive = higher.

What was measured:
Assay in all cases: NCI anticancer screen, dose series, 48 h
MDA-MB-231 = test system: MDA-MB-231
Malme-3M = test system: Malme-3M
SK-MEL-28 = test system: SK-MEL-28
UO-31 = test system: UO-31
HL-60 = test system: HL-60
SNB-19 = test system: SNB-19
OVCAR-3 = test system: OVCAR-3
ACHN = test system: ACHN
DU-145 = test system: DU-145
HT-29 = test system: HT-29
786-0 = test system: 786-0
RXF 393 = test system: RXF 393
SN12C = test system: SN12C
CCRF-CEM = test system: CCRF-CEM
Hs-578T = test system: Hs-578T
RPMI-8226 = test system: RPMI-8226
HOP-62 = test system: HOP-62
OVCAR-4 = test system: OVCAR-4
CAKI-1 = test system: CAKI-1
A498 = test system: A498
K562 = test system: K562
SNB-75 = test system: SNB-75
MDA-MB-435 = test system: MDA-MB-435
OVCAR-8 = test system: OVCAR-8
UACC-62 = test system: UACC-62
SK-MEL-2 = test system: SK-MEL-2
MDA-N = test system: MDA-N
EKVX = test system: EKVX
LOX IMVI = test system: LOX IMVI
MOLT-4 = test system: MOLT-4
COLO 205 = test system: COLO 205
SW-620 = test system: SW-620
KM12 = test system: KM12
TK-10 = test system: TK-10
NCI/ADR-RES = test system: NCI/ADR-RES
SF-539 = test system: SF-539
M14 = test system: M14
SK-MEL-5 = test system: SK-MEL-5
T47D = test system: T47D
HCC 2998 = test system: HCC 2998
NCI-H522 = test system: NCI-H522
HCT-15 = test system: HCT-15
UACC-257 = test system: UACC-257
SF-295 = test system: SF-295
MCF7 = test system: MCF7
NCI-H23 = test system: NCI-H23
IGROV-1 = test system: IGROV-1
SF-268 = test system: SF-268
A549 = test system: A549
OVCAR-5 = test system: OVCAR-5
HCT-116 = test system: HCT-116
NCI-H226 = test system: NCI-H226
PC-3 = test system: PC-3
NCI-H460 = test system: NCI-H460
SK-OV-3 = test system: SK-OV-3
HOP-92 = test system: HOP-92
U-251 = test system: U-251
SR = test system: SR

CCCNC1=Nc2ccccc2[C@@H]2N(C)c3ccccc3C(C)C[C@]12C (stereo partly drawn)
GI50 (MDA-MB-231): 15.8 µM (inactive) | GI50 (Malme-3M): 16.6 µM (inactive) | GI50 (SK-MEL-28): 18.3 µM (inactive) | GI50 (UO-31): 27.9 µM (inactive) | GI50 (HL-60): 33.3 µM (inactive) | GI50 (SNB-19): 18.6 µM (inactive) | GI50 (OVCAR-3): 19.2 µM (inactive) | GI50 (ACHN): 23.8 µM (inactive) | GI50 (DU-145): 32.4 µM (inactive) | GI50 (HT-29): 13.2 µM (inactive) | GI50 (786-0): 18.5 µM (inactive) | GI50 (RXF 393): 19.7 µM (inactive) | GI50 (SN12C): 37.1 µM (inactive) | GI50 (CCRF-CEM): 26 µM (inactive) | GI50 (Hs-578T): 19.1 µM (inactive) | GI50 (RPMI-8226): 18.7 µM (inactive) | GI50 (HOP-62): 16.4 µM (inactive) | GI50 (OVCAR-4): 5.7 µM (inactive) | GI50 (CAKI-1): 26.3 µM (inactive) | GI50 (A498): 14.4 µM (inactive) | GI50 (K562): 20 µM (inactive) | GI50 (SNB-75): 15.7 µM (inactive) | GI50 (MDA-MB-435): 17.8 µM (inactive) | GI50 (OVCAR-8): 14.7 µM (inactive) | GI50 (UACC-62): 16.1 µM (inactive) | GI50 (SK-MEL-2): 13.2 µM (inactive) | GI50 (MDA-N): 20.5 µM (inactive) | GI50 (EKVX): 32.4 µM (inactive) | GI50 (LOX IMVI): 13.3 µM (inactive) | GI50 (MOLT-4): 18.1 µM (inactive) | GI50 (COLO 205): 17.9 µM (inactive) | GI50 (SW-620): 16.5 µM (inactive) | GI50 (KM12): 20.3 µM (inactive) | GI50 (TK-10): 16 µM (inactive) | GI50 (NCI/ADR-RES): 22.4 µM (inactive) | GI50 (SF-539): 16.4 µM (inactive) | GI50 (M14): 17.7 µM (inactive) | GI50 (SK-MEL-5): 15.6 µM (inactive) | GI50 (T47D): 20 µM (inactive) | GI50 (HCC 2998): 11.1 µM (inactive) | GI50 (NCI-H522): 18.2 µM (inactive) | GI50 (HCT-15): 23.6 µM | GI50 (UACC-257): 12.9 µM (inactive) | GI50 (SF-295): 16.3 µM (inactive) | GI50 (MCF7): 21.3 µM (inactive) | GI50 (NCI-H23): 18.2 µM (inactive) | GI50 (IGROV-1): 17.8 µM (inactive) | GI50 (SF-268): 21.6 µM (inactive) | GI50 (A549): 28.8 µM (inactive) | GI50 (OVCAR-5): 15.1 µM (inactive) | GI50 (HCT-116): 14.8 µM (inactive) | GI50 (NCI-H226): 34 µM (inactive) | GI50 (PC-3): 16 µM (inactive) | GI50 (NCI-H460): 24.5 µM (inactive)

COc1cc2c(cc1OCCOS(C)(=O)=O)N=C[C@@H]1CCCN1C2=O
GI50 (SK-MEL-28): 23.8 µM (inactive) | GI50 (HL-60): 26.9 µM (inactive) | GI50 (SNB-19): 45.3 µM (inactive) | GI50 (DU-145): 27.3 µM (inactive) | GI50 (HT-29): 36.8 µM (inactive) | GI50 (SK-OV-3): > 100 µM (inactive) | GI50 (RXF 393): 29.7 µM (inactive) | GI50 (SN12C): 26 µM (inactive) | GI50 (Hs-578T): 27.5 µM (inactive) | GI50 (OVCAR-4): 22.2 µM (inactive) | GI50 (SNB-75): 54.1 µM (inactive) | GI50 (MDA-MB-435): 20.3 µM (inactive) | GI50 (OVCAR-8): 32.1 µM (inactive) | GI50 (SK-MEL-2): 29.4 µM (inactive) | GI50 (EKVX): 32.7 µM (inactive) | GI50 (MOLT-4): 21.9 µM (inactive) | GI50 (COLO 205): 24.1 µM (inactive) | GI50 (KM12): 33.9 µM (inactive) | GI50 (T47D): 40.7 µM (inactive) | GI50 (HOP-92): 21.4 µM (inactive) | GI50 (HCC 2998): 30.7 µM (inactive) | GI50 (SF-295): 23.3 µM (inactive) | GI50 (MCF7): 39 µM (inactive) | GI50 (IGROV-1): 27.7 µM (inactive) | GI50 (SF-268): 70.1 µM (inactive) | GI50 (A549): > 100 µM (inactive) | GI50 (NCI-H460): 97.7 µM (inactive)

NNC(=O)Nc1cccnc1
GI50 (MDA-MB-231): > 100 µM (inactive) | GI50 (Malme-3M): > 100 µM (inactive) | GI50 (SK-MEL-28): > 100 µM (inactive) | GI50 (UO-31): > 100 µM (inactive) | GI50 (HL-60): > 100 µM (inactive) | GI50 (SNB-19): > 100 µM (inactive) | GI50 (OVCAR-3): > 100 µM (inactive) | GI50 (ACHN): > 100 µM (inactive) | GI50 (DU-145): > 100 µM (inactive) | GI50 (HT-29): > 100 µM (inactive) | GI50 (786-0): > 100 µM (inactive) | GI50 (SK-OV-3): > 100 µM (inactive) | GI50 (RXF 393): > 100 µM (inactive) | GI50 (SN12C): > 100 µM (inactive) | GI50 (CCRF-CEM): > 100 µM (inactive) | GI50 (RPMI-8226): > 100 µM (inactive) | GI50 (HOP-62): > 100 µM (inactive) | GI50 (OVCAR-4): > 100 µM (inactive) | GI50 (CAKI-1): > 100 µM (inactive) | GI50 (A498): > 100 µM (inactive) | GI50 (K562): > 100 µM (inactive) | GI50 (SNB-75): > 100 µM (inactive) | GI50 (MDA-MB-435): > 100 µM (inactive) | GI50 (OVCAR-8): > 100 µM (inactive) | GI50 (UACC-62): > 100 µM (inactive) | GI50 (SK-MEL-2): > 100 µM (inactive) | GI50 (MDA-N): > 100 µM (inactive) | GI50 (EKVX): > 100 µM (inactive) | GI50 (LOX IMVI): > 100 µM (inactive) | GI50 (MOLT-4): > 10 µM (inactive) | GI50 (COLO 205): > 100 µM (inactive) | GI50 (SW-620): > 100 µM (inactive) | GI50 (KM12): > 100 µM (inactive) | GI50 (TK-10): > 100 µM (inactive) | GI50 (NCI/ADR-RES): > 100 µM (inactive) | GI50 (SF-539): > 100 µM (inactive) | GI50 (M14): > 100 µM (inactive) | GI50 (SK-MEL-5): > 100 µM (inactive) | GI50 (T47D): > 100 µM (inactive) | GI50 (HOP-92): > 100 µM (inactive) | GI50 (HCC 2998): > 100 µM (inactive) | GI50 (NCI-H522): > 100 µM (inactive) | GI50 (HCT-15): > 100 µM | GI50 (UACC-257): > 100 µM (inactive) | GI50 (SF-295): > 100 µM (inactive) | GI50 (MCF7): > 100 µM (inactive) | GI50 (NCI-H23): > 100 µM (inactive) | GI50 (IGROV-1): > 100 µM (inactive) | GI50 (U-251): > 100 µM (inactive) | GI50 (A549): > 100 µM (inactive) | GI50 (OVCAR-5): > 100 µM (inactive) | GI50 (HCT-116): > 100 µM (inactive) | GI50 (NCI-H226): > 100 µM (inactive) | GI50 (PC-3): > 100 µM (inactive)

CC#CC(O)(C(=O)OC1CCC2CCC1N2C)C1CCCC1 (stereo not drawn)
GI50 (MDA-MB-231): > 100 µM (inactive) | GI50 (Malme-3M): > 100 µM (inactive) | GI50 (SK-MEL-28): > 100 µM (inactive) | GI50 (UO-31): > 100 µM (inactive) | GI50 (SNB-19): > 100 µM (inactive) | GI50 (OVCAR-3): > 100 µM (inactive) | GI50 (ACHN): > 10 µM (inactive) | GI50 (DU-145): > 100 µM (inactive) | GI50 (HT-29): > 100 µM (inactive) | GI50 (786-0): > 100 µM (inactive) | GI50 (SK-OV-3): > 100 µM (inactive) | GI50 (RXF 393): > 100 µM (inactive) | GI50 (SN12C): > 100 µM (inactive) | GI50 (SR): > 100 µM (inactive) | GI50 (RPMI-8226): > 100 µM (inactive) | GI50 (HOP-62): > 100 µM (inactive) | GI50 (CAKI-1): > 100 µM (inactive) | GI50 (SNB-75): > 100 µM (inactive) | GI50 (OVCAR-8): > 100 µM (inactive) | GI50 (UACC-62): > 100 µM (inactive) | GI50 (MDA-N): > 100 µM (inactive) | GI50 (EKVX): > 100 µM (inactive) | GI50 (LOX IMVI): > 100 µM (inactive) | GI50 (MOLT-4): > 100 µM (inactive) | GI50 (COLO 205): > 100 µM (inactive) | GI50 (SW-620): > 100 µM (inactive) | GI50 (KM12): > 100 µM (inactive) | GI50 (TK-10): > 100 µM (inactive) | GI50 (NCI/ADR-RES): > 10 µM (inactive) | GI50 (SF-539): > 100 µM (inactive) | GI50 (M14): > 100 µM (inactive) | GI50 (SK-MEL-5): > 100 µM (inactive) | GI50 (T47D): > 100 µM (inactive) | GI50 (HCC 2998): > 100 µM (inactive) | GI50 (NCI-H522): > 100 µM (inactive) | GI50 (HCT-15): > 100 µM | GI50 (UACC-257): > 100 µM (inactive) | GI50 (SF-295): > 100 µM (inactive) | GI50 (MCF7): > 100 µM (inactive) | GI50 (NCI-H23): > 100 µM (inactive) | GI50 (IGROV-1): > 100 µM (inactive) | GI50 (SF-268): > 100 µM (inactive) | GI50 (U-251): > 10 µM (inactive) | GI50 (A549): > 100 µM (inactive) | GI50 (OVCAR-5): > 10 µM (inactive) | GI50 (HCT-116): > 100 µM (inactive) | GI50 (NCI-H226): > 100 µM (inactive) | GI50 (PC-3): > 100 µM (inactive)
